Source: patent US20200369728A1, “PEPTIDOMIMETIC MACROCYCLES AND USES THEREOF” (Aileron Therapeutics, Inc., priority 2015, published 2020)
Bridge positions count the residues as written; N and C are the ends. Square brackets hold non-standard residues; d marks the D form. Peptide text beside a SMILES is read from it. R8 = C=CCCCCCC[C@@](C)(N)C(=O)O; Cba = N[C@@H](CC1CCC1)C(=O)O; S5 = C=CCCC[C@](C)(N)C(=O)O; Nle = CCCC[C@H](N)C(=O)O

Experiments:
SJSA-1 cells = assay: Cell lysis by peptidomimetic macrocycles (LDH release); type: cell-based; settings: SJSA-1, 1 h
Experimental: SJSA-1 cells were plated out one day in advance in clear flat-bottom plates (Costar, catalog number 353072) at 7500 cells/well with 100 ul/well of growth media, leaving row H columns 10-12 empty for media alone. On the day of the assay, media was exchanged with RPMI 1% FBS media, 90 uL of media per well.
10 mM stock solutions of the peptidomimetic macrocycles were prepared in 100% DMSO. Peptidomimetic macrocycles were then diluted serially in 100% DMSO, and then further diluted 20-fold in sterile water to prepare working stock solutions in 5% DMSO/water of each peptidomimetic macrocycle at concentrations ranging from 500 μM to 62.5 μM.
10 μL of each compound was added to the 90 uL of SJSA-1 cells to yield final concentrations of 50 μM to 6.25 μM in 0.5% DMSO-containing media. The negative control (non-lytic) sample was 0.5% DMSO alone and positive control (lytic) samples include 10 μM Melittin and 1% Triton X-100.
Cell plates were incubated for 1 hour at 37° C. After the 1 hour incubation, the morphology of the cells is examined by microscope and then the plates were centrifuged at 1200 rpm for 5 minutes at room temperature. 40 μL of supernatant for each peptidomimetic macrocycle and control sample is transferred to clear assay plates. LDH release is measured using the LDH cytotoxicity assay kit from Caymen, catalog #1000882.

Caspase 3 = Caspase 3 detection assay in SJSA1 cells; type: cell-based; settings: SJSA1, 48 h, Caspase 3 activation over DMSO-treated cells

Row | Compound | 6.25 μM % Lysed cells (1 h LDH) (SJSA-1 cells) [%] | 25 μM % Lysed cells (1 h LDH) (SJSA-1 cells) [%] | 50 μM % Lysed cells (1 h LDH) (SJSA-1 cells) [%] | caspase 0.3 μM (Caspase 3) | caspase 3 μM (Caspase 3) | caspase 10 μM (Caspase 3) | caspase 30 μM (Caspase 3)
1 | CC[C@H](C)[C@H](NC(=O)[C@H](C)NC(=O)[C@H](C)NC(=O)[C@]1(C)CCCC=CCCCCCC[C@@](C)(NC(=O)[C@H](Cc2ccccc2)NC(=O)[C@@H](NC(=O)[C@H](CC(C)C)NC(C)=O)[C@@H](C)O)C(=O)N[C@@H](C)C(=O)N[C@@H](Cc2ccc(O)cc2)C(=O)N[C@@H](Cc2c[nH]c3ccccc23)C(=O)N[C@@H](C)C(=O)N[C@@H](CCC(N)=O)C(=O)N[C@@H](CC(C)C)C(=O)N1)C(=O)N[C@H](CC(C)C)C(N)=O (single isomer, unassigned) [compound 82] | 0 | 0 | 1 |  |  |  | 
2 | CC(=O)N[C@@H](CC(C)C)C(=O)N[C@H](C(=O)N[C@@H](Cc1ccccc1)C(=O)N[C@]1(C)CCCCCCC=CCCC[C@@](C)(C(=O)N[C@@H](C)C(=O)N[C@H](C(=O)NCC(N)=O)C(C)C)NC(=O)[C@H](CC(C)C)NC(=O)[C@H](CCC(N)=O)NC(=O)[C@H](C)NC(=O)[C@H](Cc2c[nH]c3ccccc23)NC(=O)[C@H](Cc2ccc(O)cc2)NC(=O)[C@H](C)NC1=O)[C@@H](C)O (single isomer, unassigned) [compound 108] | 0 | 0 | 1 |  |  |  | 
3 | CC(=O)N[C@@H](CC(C)C)C(=O)N[C@H](C(=O)N[C@@H](Cc1ccccc1)C(=O)N[C@]1(C)CCCCCCC=CCCC[C@@](C)(C(=O)N[C@@H](CO)C(=O)N[C@@H](C)C(=O)N[C@@H](C)C(N)=O)NC(=O)[C@H](CC(C)C)NC(=O)[C@H](CCC(N)=O)NC(=O)[C@H](C)NC(=O)[C@H](Cc2c[nH]c3ccccc23)NC(=O)[C@H](Cc2ccc(C(=O)O)cc2)NC(=O)[C@H](C)NC1=O)[C@@H](C)O (single isomer, unassigned) [compound 169] | 2 | 3 | 7 |  |  |  | 
4 | CC[C@H](C)[C@H](NC(=O)[C@H](C)NC(=O)[C@H](C)NC(=O)[C@]1(C)CCCC=CCCCCCC[C@@](C)(NC(=O)[C@H](Cc2ccccc2)NC(=O)[C@@H](NC(=O)[C@H](CCC(=O)O)NC(C)=O)[C@@H](C)O)C(=O)N[C@@H](CCC(=O)O)C(=O)N[C@@H](Cc2c[nH]cn2)C(=O)N[C@@H](Cc2c[nH]c3ccccc23)C(=O)N[C@@H](C)C(=O)N[C@@H](CCC(N)=O)C(=O)N[C@@H](CC(C)C)C(=O)N1)C(=O)N[C@H](C)C(N)=O (single isomer, unassigned) [compound 174] | 5 | 2 | 5 |  |  |  | 
5 | CC[C@H](C)[C@H](NC(=O)[C@H](C)NC(=O)[C@H](C)NC(=O)[C@]1(C)CCCC=CCCCCCC[C@@](C)(NC(=O)[C@H](Cc2ccccc2)NC(=O)[C@@H](NC(=O)[C@H](CC(C)C)NC(C)=O)[C@@H](C)O)C(=O)N[C@@H](C)C(=O)N[C@@H](Cc2ccc(C(=O)O)cc2)C(=O)N[C@@H](Cc2c[nH]c3ccccc23)C(=O)N[C@@H](C)C(=O)N[C@@H](CCC(N)=O)C(=O)N[C@@H](CC(C)C)C(=O)N1)C(=O)N[C@H](C)C(N)=O (single isomer, unassigned) [compound 182] | 0 | 3 | 6 |  |  |  | 
6 | CC[C@H](C)[C@H](NC(=O)[C@H](C)NC(=O)[C@H](C)NC(=O)[C@]1(C)CCCC=CCCCCCC[C@@](C)(NC(=O)[C@H](Cc2ccccc2)NC(=O)[C@@H](NC(=O)[C@H](CC(C)C)NC(C)=O)[C@@H](C)O)C(=O)N[C@@H](CCC(=O)O)C(=O)N[C@@H](Cc2ccc(O)cc2)C(=O)N[C@@H](Cc2c[nH]c3ccccc23)C(=O)N[C@@H](C)C(=O)N[C@@H](CCC(N)=O)C(=O)N[C@@H](CC(C)C)C(=O)N1)C(=O)N[C@H](C)C(N)=O (single isomer, unassigned) [compound 217] | 2 | 1 | 2 |  |  |  | 
7 | CC(=O)N[C@@H](CC(C)C)C(=O)N[C@H](C(=O)N[C@@H](Cc1ccccc1)C(=O)N[C@]1(C)CCCCCCC=CCCC[C@@](C)(C(=O)N[C@@H](C)C(=O)N[C@@H](C)C(=O)NC(C)(C)C(=O)N[C@@H](C)C(N)=O)NC(=O)[C@H](CC(C)C)NC(=O)[C@H](CCC(N)=O)NC(=O)[C@H](C)NC(=O)[C@H](Cc2c[nH]c3ccccc23)NC(=O)[C@H](Cc2ccc(O)cc2)NC(=O)[C@H](C)NC1=O)[C@@H](C)O (single isomer, unassigned) [compound 232] | 6 | 5 | 5 |  |  |  | 
8 | CC[C@H](C)[C@H](NC(=O)[C@H](C)NC(=O)[C@H](C)NC(=O)[C@]1(C)CCCC=CCCCCCC[C@@](C)(NC(=O)[C@H](Cc2ccccc2)NC(=O)[C@@H](NC(=O)[C@H](CC(C)C)NC(C)=O)[C@@H](C)O)C(=O)N[C@@H](CCC(=O)O)C(=O)N[C@@H](Cc2ccc(C(=O)O)cc2)C(=O)N[C@@H](Cc2c[nH]c3cc(Cl)ccc23)C(=O)N[C@@H](C)C(=O)N[C@@H](CCC(N)=O)C(=O)N[C@@H](CC2CCC2)C(=O)N1)C(=O)N[C@H](C)C(N)=O (single isomer, unassigned) [compound 335] | 0 | 0 | 1 |  |  |  | 
9 | CC[C@H](C)[C@H](NC(=O)[C@H](C)NC(=O)[C@H](C)NC(=O)[C@]1(C)CCCC=CCCCCCC[C@@](C)(NC(=O)[C@H](Cc2ccccc2)NC(=O)[C@@H](NC(=O)[C@H](CC(C)C)NC(C)=O)[C@@H](C)O)C(=O)N[C@@H](CCC(=O)O)C(=O)N[C@@H](Cc2ccc(C(=O)O)cc2)C(=O)N[C@@H](Cc2c[nH]c3cc(Cl)ccc23)C(=O)N[C@@H](C)C(=O)N[C@@H](CCC(N)=O)C(=O)N[C@@H](CC2CCC2)C(=O)N1)C(=O)N[C@H](C)C(N)=O (single isomer, unassigned) [compound 336] | 0 | 0 | 0 |  |  |  | 
10 | CC(=O)N[C@@H](CCC(=O)O)C(=O)N[C@H](C(=O)N[C@@H](Cc1ccccc1)C(=O)N[C@]1(C)CCCCCCC=CCCC[C@@](C)(C(=O)N[C@@H](C)C(=O)N[C@@H](C)C(=O)N[C@@H](C)C(=O)N[C@@H](C)C(=O)N[C@@H](C)C(=O)N[C@H](C)C(N)=O)NC(=O)[C@H](CC(C)C)NC(=O)[C@H](CCC(N)=O)NC(=O)[C@H](C)NC(=O)[C@H](Cc2c[nH]c3ccccc23)NC(=O)[C@H](Cc2ccc(O)cc2)NC(=O)[C@H](CCC(=O)O)NC1=O)[C@@H](C)O (single isomer, unassigned) [compound 340] | 0 | 0 | 0 |  |  |  | 
11 | CCCC[C@H](NC(=O)[C@H](C)NC(=O)[C@H](CO)NC(=O)[C@]1(C)CCCC=CCCCCCC[C@@](C)(NC(=O)[C@H](Cc2ccccc2)NC(=O)[C@@H](NC(=O)[C@H](CC(C)C)NC(C)=O)[C@@H](C)O)C(=O)N[C@@H](C)C(=O)N[C@@H](Cc2ccc(O)cc2)C(=O)N[C@@H](Cc2c[nH]c3ccccc23)C(=O)N[C@@H](C)C(=O)N[C@@H](CCC(N)=O)C(=O)N[C@@H](CC(C)C)C(=O)N1)C(N)=O [compound 3] (Ac-LTF[R8]AYWAQL[S5]SA[Nle]-NH2; staple 4-11) | 1 | 1 | 3 |  |  |  | 
12 | CC(=O)N[C@@H](CCC(=O)O)C(=O)N[C@H](C(=O)N[C@@H](Cc1ccccc1)C(=O)N[C@]1(C)CCCCCCC=CCCC[C@@](C)(C(=O)N[C@@H](CO)C(=O)N[C@@H](CC(C)C)C(=O)N[C@@H](C)C(N)=O)NC(=O)[C@H](CC(C)C)NC(=O)[C@H](CCC(N)=O)NC(=O)[C@H](C)NC(=O)[C@H](Cc2c[nH]c3ccccc23)NC(=O)[C@H](Cc2ccc(O)cc2)NC(=O)[C@H](C(C)C)NC1=O)[C@@H](C)O [compound 127] (Ac-ETF[R8]VYWAQL[S5]SLA-NH2; staple 4-11) |  |  |  | 1 | 1 | 4 | 13
13 | CCCC[C@H](NC(=O)[C@H](C)NC(=O)[C@H](C)NC(=O)[C@]1(C)CCCC=CCCCCCC[C@@](C)(NC(=O)[C@H](Cc2ccccc2)NC(=O)[C@@H](NC(=O)[C@H](CC(C)C)NC(C)=O)[C@@H](C)O)C(=O)N[C@@H](CCC(=O)O)C(=O)N[C@@H](Cc2ccc(O)cc2)C(=O)N[C@@H](Cc2c[nH]c3ccccc23)C(=O)N[C@@H](C)C(=O)N[C@@H](CCC(N)=O)C(=O)N[C@@H](CC2CCC2)C(=O)N1)C(=O)N[C@@H](C)C(N)=O [compound 238] (Ac-LTF[R8]EYWAQ[Cba][S5]AA[Nle]A-NH2; staple 4-11) |  |  |  | 1 | 2 | 4 | 21
14 | CC(=O)N[C@@H](CC(C)C)C(=O)N[C@H](C(=O)N[C@@H](Cc1ccccc1)C(=O)N[C@]1(C)CCCCCCC=CCCC[C@@](C)(C(=O)N[C@@H](CO)C(=O)N[C@@H](C)C(=O)N[C@@H](Cc2ccccc2)C(=O)N[C@@H](C)C(N)=O)NC(=O)[C@H](CC2CCC2)NC(=O)[C@H](CCC(N)=O)NC(=O)[C@H](C)NC(=O)[C@H](Cc2c[nH]c3ccccc23)NC(=O)[C@H](Cc2ccc(O)cc2)NC(=O)[C@H](CCC(=O)O)NC1=O)[C@@H](C)O [compound 242] (Ac-LTF[R8]EYWAQ[Cba][S5]SAFA-NH2; staple 4-11) |  |  |  | 1 | 4 | 5 | 18
